Tests used:
BALB/MK karatinocytes = assay: [3H]-thymidine incorporation, measurement of biological activities; type: cell-based; conditions: FIG. 5; for biological activity compared with natural thymosin β-4: BALB/MK keratinocytes, thymidine incorporation
Protocol: The biological activities of the purified acetyl-octapetide of Example 2 were evaluated using BALB/MK karatinocytes according to Falco et al method to measure [^3H]-thymidine incorporation (Falco, et al. (1988) Oncogene., 2, 573). BALB/MK karatinocytes were cultured in 250 ml-flasks containing EMEM (Eagle's minimal essential media, Gibco, U.S.A.) supplemented with […] (fetal bovine serum). BALB/MK karatinocytes cultured were treated with 0.25% trypsin solution to detach cells from the bottom of culture flasks and centrifuged to collect cell pellets. Cells were resuspended in EMEM not containing FBS, its aliquot, 2×10^4 cells/0.3 ml medium was added to each well of 24-well plates and cultured under 7% CO2 for 24 hr at 37° C. 2 ng/ml of the acetyl octapeptide prepared in Example 2 was serially diluted by two-fold using EMEM containing 0.2 (w/v) % bovine serum albumin and 0.3 ml of the diluted peptide was added to each well, followed by additional culturing under 7% CO2 for 6 hr at 37° C. Afterwards, 0.5 μCi of [^3H]-thymidine (Amersham, TRK 686, 68 Ci/mmol) was added to each well and incubated overnight. After removing supernatants, cells were washed once using PBS (phosphate buffered saline) and incubated with 0.1 ml of 0.25% trypsin solution for 5 min at 37° C. to detach cells from the bottom of plates. 0.5 ml of EMEM containing 10% FBS was added to each well and cells were adhered to glass fiber filters using a cell harvester (12 well cell harvester, Millipore, U.S.A.). The filters were washed once with 1 ml of distilled water and once with 1 ml of ethanol, and kept to stand for 30 min at 60° C. for drying. The dried filters were added along with 2 ml of scintillation cocktail to scintillation vials and allowed to stand for 30 min at room temperature, after which radioactivity incorporated into cells was determined using a scintillation counter (Beckman, U.S.A) as shown in FIG. 5.

procollagen = assay: Procollagen level in HaCaT cell line (Procollagen ELISA kit); type: cell-based, human; conditions: HaCaT keratinocytes, 1 μg/ml; FIG. 9
Protocol: (§1) Furthermore, HaCaT cell line was treated with the acetyl-octapeptide of this invention (1 μg/ml) and the level of procollagen, one of indicators to show the improvement in skin wrinkle, was examined (FIG. 9). The level of procollagen was measured using Procollagen ELISA kit (Takara). For verifying effects on levels of hyaluronic acid, another indicator representing the improvement in skin wrinkle, HaCaT cell line was incubated with the acetyl-octapeptide of this invention (5 μmole) and the level of hyaluronic acid was measured using Hyaluronic acid ELISA kit (Echelon Biosciences Inc, USA) (FIG. 10).

hyaluronic acid = assay: Hyaluronic acid level in HaCaT cell line (Hyaluronic acid ELISA kit); type: cell-based, human; conditions: HaCaT keratinocytes, 5 μmole; FIG. 10
Protocol: as §1

C3H/HeN mice = assay: Hair-growth activities in mice with hair removed; type: in vivo; conditions: Formulation Example 5 applied on back for 25 days, initial hair growth effects, hair length and number, FIG. 12
Source text: The hairs of the back portions of C3H/HeN mice were completely removed using a hair cutter and a hair loss-inducing substance. One day later, Formulation Example 5 (cosmetic liquid) was applied onto the back portions for 25 days and then hair growth was observed.

HaCaT keratinocytes = assay: SRB colorimetric assay, growth of HaCaT keratinocytes; type: cell-based, human; conditions: 10 ng/ml or 1,000 ng/ml, 72 hr, serum-free medium; FIGS. 7 and 8
Protocol: To analyze effects of peptides of this invention on proliferation of keratinocytes, SRB (Sulforhodamine B) colorimetric assay was carried out using HaCaT kerationcyte according to Rizzino et al method (Rizzino, et al. Cancer Res., 48:4266 (1988)). HaCaT ketatinocytes (The Korean Cell Line Bank) were cultured in 250 ml-flasks containing EMEM (Eagle's minimal essential media, Gibco, U.S.A.) supplemented with […] (fetal bovine serum). HaCaT ketatinocytes cultured were treated with 0.25% trypsin solution to detach cells from the bottom of culture flasks and centrifuged to collect cell pellets. Cells were resuspended in EMEM not containing FBS, its aliquot (4×10^3) cells was added to each well of 96-well plates and cultured under 7% CO2 for 24 hr at 37° C. After 24-hr culture, the medium was changed with a fresh medium not containing serum and cells were incubated with thymosin β-4 or the acetyl-octapeptide (10 ng/ml or 1,000 ng/ml) dissolved in 10% DMSO for 72 hr under the same conditions as described above. After removing supernatants, cells were washed once using PBS (phosphate buffered saline) and incubated with SRB solution (Sigma-Aldrich). Cells were washed with PBS and observed under a microscope to find cell viability. In addition, absorbance at 590 nm was measured to analyze cell proliferation (FIG. 7). […]

In the case of “Ac-Lys-Leu-Lys-Lys-Thr-Glu-Thr-Gln-OH (Ac-KLKKTETQ-OH) [acetyl octapeptide]”, the “[3H]-thymidine incorporation into keratinocytes” value (BALB/MK karatinocytes; 2 ng/ml serially diluted two-fold) was “promotes thymidine incorporation into kerationcytes in a dose-dependent fashion”, the “biological activity compared with natural thymosin β-4” value (BALB/MK karatinocytes) was “high biological activities similar to intact Tβ-4F” and the “biological activity compared with natural thymosin β-4” value (BALB/MK karatinocytes; listed as present peptide) was “biological activities almost identical to natural-occurring Tβ4”. The “level of procollagen in cells” value (procollagen) was “increased in a dose-dependent manner”, the “level of hyaluronic acid in cells” value (hyaluronic acid) was “increased in a dose-dependent manner” and the “increase of hair growth compared with control” value (C3H/HeN mice) was 25-30%. For the same substance, the “cell viability / proliferation of HaCaT keratinocytes versus control” value (HaCaT keratinocytes) was “much higher cell viability than control”.
